Where only a bound is given, the exact number is not on record here.

Data set [1] relates to rats. Put plainly: Carrageenan-induced thermal hyperalgesia. It is filed as in vivo, rat. The note with it: W146, FIG. 14.
The test system of data set [2] is other known S1P receptor subtypes. The note with it: at doses as high as 10-20 μM; cited from earlier work.
Data set [3] deals with rats. The data set can be described thus: Ceramide-induced thermal hyperalgesia (intraplantar). It is filed as in vivo, rat.
Data set [4] is described as follows: S1P-induced thermal hyperalgesia (intraplantar). It is filed as in vivo. The settings on record: intraplantar W146 15 minutes before intraplantar S1P.
Data set [5] concerns the target S1P1 subtype, human receptor (Homo sapiens, UniProt P21453). The settings on record: GTP-γS binding assay; cited from earlier work. (In general: GTPγS resists hydrolysis and so accumulates on activated G proteins.)
In data set [6] the test system is Male Sprague Dawley rats. The data set can be described thus: Thermal hyperalgesia (Hargreaves paw-withdrawal latency) in rats with chronic s.c. morphine or saline infusion. The note with it: for effect on hindpaw withdrawal latencies when given alone: daily i.th 3 μM/day, saline-infused rats, vs vehicle group; for development of morphine-induced hyperalgesia: daily i.th for 6 days with s.c. morphine infusion, Myr 0.3, FB1 1, D609 1, DMS 0.3, SK-1 0.3 μM/day; for effect on paw-withdrawal latencies: drug alone vs Veh-Sal; for effect on paw-withdrawal latencies / Paw-Withdrawal Latency: day 6; for Paw-Withdrawal Latency: drug given alone i.th daily over 6 days to saline-infused rats, mean ± SEM. It is filed as in vivo, rat. The procedure: (§1) Osmotic pump implantation. Rats, under light isoflurane anesthesia, were subcutaneously implanted (in the interscapular region) with osmotic pumps (Alzet 2001; Alza, Mountain View Calif.), to deliver saline at 1 μl/h or morphine at 75 μg μl^−1h^−1 over 7 days as described (Vera-Portocarrero et al., 2006). Minipumps were filled according to manufacturer's specifications. The use of the osmotic pump ensures a continuous delivery of morphine avoiding intermittent periods of withdrawal. The integrity of the pump delivery system was reexamined at the end of each experiment when the spinal cords were harvested.
(§2) Drug administration. The test substances fumonisin B1 (FB 1, Sigma-Aldrich, St. Louis, Mo.), myriocin (Myr Sigma-Aldrich, St. Louis, Mo.), D609 (Tricyclodecan-9-ylxanthogenate, K; Calbiochem, San Diego, Calif.), DMS (N,N-Dimethylsphingosine, Caymen Chemical, Ann Arbor, Mich.), SK-I 2-(p-hydroxyanilino)-4-(p-chlorophenyl) thiazole, Calbiochem, San Diego, Calif.) or their vehicle (0.5% in DMSO) were delivered by intrathecal (i.th) injection in rats chronically implanted with i.th cannulas as described previously (Storkson et al., 1996). Test substances were injected i.th once a day for 6 days in a total volume of 10 μl followed by a 10 μl flush with sterile physiological saline.
Behavioral tests. Thermal hyperalgesia. The method of Hargreaves and colleagues was used to assess changes in baseline nociceptive responses to a thermal nociceptive stimulus (Hargreaves et al., 1988). Animals were allowed to acclimate within a Plexiglas enclosure on a clear glass plate in a quiet testing room. A radiant heat source is focused onto the plantar aspect of the hindpaw with baseline latencies of 18-20 sec. and a maximal cutoff time of 20 sec to prevent tissue damage. The paw-withdrawal latency is determined by a motion detector activated by the paw withdrawal, stopping a timer. Foot withdrawal latencies were taken on the day before implantation of the minipumps (baseline) and subsequently on days 1, 3 and 6 of the experimental period to determine whether morphine-tolerant animals develop increased sensitivity to thermal stimulation. A significant (P<0.05) reduction in paw-withdrawal latency over time and before implantation of the osmotic minipump is characterized as thermal hyperalgesia. […]

For another data set, the target named is murine S1P1 subtype (Mus musculus, UniProt O08530). The settings on record: cited from earlier work.
In data set [7] the test system is rats. The settings on record: rat, in vivo.
Experimental: (§3) Tail flick latency (s) was tested before and 30 min after morphine (FIG. 26).
The test system of data set [8] is Male Sprague Dawley rats. Put plainly: Paclitaxel-induced neuropathic pain (mechano-allodynia, mechano-hyperalgesia). It is filed as in vivo, rat. The procedure:
Paclitaxel-Induced: Paclitaxcel-induced pain was studied by means of the well-characterized rat model developed by Bennett in which repeated intraperitoneal (i.p) injections of low doses of paclitaxel are administered to induce neuropathic pain (methano-allodynia and mechano-hyperalgesia) with little systemic toxicity or motor impairment (Polomano et al., Pain 94, 293-304 (2001)). The behavioral responses last for several weeks to months, thus modeling painful neuropathies in patients. Paclitaxel (Parentapharm. Yardley, Pa.) or its vehicle (Cremophor EL and 95% dehydrated ethanol in 1:1 ratio) was injected i.p in rats on four alternate days (day 0, 2, 4 and 6 with a final cumulative dose of 4 mg/kg). MnTE-2-PyP^5+, W146 (source), W140 (source) or their vehicle were delivered by intrathecal (i.th) injection (total volume of 10 μl followed by a 10 μl flush with sterile physiological saline) in rats chronically implanted with i.th cannulas using the L5/L6 lumbar approach, as described previously and Commonly used for drug delivery (Ramos et al. Neuroscience 169, 1888-1900 (2010); Schoeniger-Skinner, Brain Behav Immun 21, 660-667 (2007); Doyle, et al. Neurosci Lett (2010)). Drugs were injected 30 min before paclitaxel or its vehicle from day (D) 0 and then daily up to D15. In another set of experiments, Fingolimod (Fingolimod, Cayman Chemicals, Ann Arbor, Mich.) or its vehicle (1.2% ethanol in saline) were given by intraperitoneal injection (i.p., 0.2 ml) from D0 to D15; behavioral testing was carried out on D0 and at baseline and subsequently on D12, D16 and D22.
Behavioral testing: Baseline values were taken from all rats on day 0 Baseline. Drugs or vehicles under investigation were then given, followed 30 min later by a chemotherapeutic or vehicle. Behavioral testing was subsequently carried out on D12, D16 and D22.
Mechano-Allodynia and mechano-hyperalgesia: Mechanical withdrawal thresholds were assessed with an automated electronic version of the von Frey test (dynamic plantar aesthesiometer, model 37450; Ugo Basile, Milan, Italy). Each rat was placed in a Plexiglas chamber (28×40×35-cm, wire mesh floor) and allowed to acclimate for fifteen minutes. […] The pressure evoking a clear voluntary hind-paw withdrawal response (normally 40-45 g) was recorded automatically and taken as the mechanical threshold index. Mechanical threshold was assessed three times at each time point to yield a mean value, which is reported as mean absolute threshold (grams, g). […] Mechanical-hyperalgesia was assessed by the Randall and Sellitto paw pressure test 6 using an Ugo-Basile analgesiometer, which applies a linearly increasing mechanical force to the dorsum of the rat's hind paw. […]

The subject of data set [9] is Male Sprague Dawley rats. The data set can be described thus: Antinociceptive tolerance (tail flick after acute morphine) in rats with chronic s.c. morphine or saline infusion. The format is in vivo, rat. The note with it: for effect on tail flick latencies when given alone: daily i.th 3 μM/day, saline-infused rats, vs vehicle group; for development of morphine antinociceptive tolerance: daily i.th for 6 days with s.c. morphine infusion, Myr 0.3, FB1 1, D609 1, DMS 0.3, SK-1 0.3 μM/day; for effect on antinociceptive responses to acute morphine: drug alone vs Veh-Sal; for effect on antinociceptive responses to acute morphine / % MPE (Tail-flick): day 6; for % MPE (Tail-flick): drug given alone i.th daily over 6 days to saline-infused rats, response to acute morphine, mean ± SEM. The procedure: as §1, §2
After the Hargreave's test, the development of antinociceptive tolerance was determined in all animals as follows. Acute nociception. The tail flick test which measures, withdrawal latencies of the tail from a noxious radiant heat source was used to measure thermal nociceptive sensitivity with baseline latencies of 4-5 sec and it cut-off time of 10 sec to prevent tissue injury (D'Amour, 1941). […]. Test substances or vehicle were given on day 0-6 after completion of the behavioral tests. At the required time points, after the behavioral tests, spinal cord tissues from the lumbar, enlargement segment of the spinal cord (L4-L6) and dorsal horn tissues were removed and tissues processed for immunohistochemical, Western blot and biochemical analysis. All experiments were conducted with the experimenters blinded to treatment conditions. […]

The test system of data set [10] is rats. The data set can be described thus: Antinociceptive response to acute morphine (tail flick latency). The format is in vivo, rat. The settings on record: W146 1 pM i.th 15 min before morphine 1, 3 or 6 mg/kg i.p; tail flick 30 min after morphine. Background: Hot-plate and tail-flick tests time the reaction to a heat stimulus.
Experimental: Acute nociception. The tail flick test, which measures withdrawal latencies of the tail from a noxious radiant heat source, was used to measure thermal nociceptive sensitivity with baseline latencies of 2-3 sec and a cut-off time of 10 sec to prevent tissue injury (D'Amour, J Pharmacol Exp Ther 72, 74-79 (1941)). […] Test substances or vehicle were given on day 0 through 6 after completion of the behavioral tests.
as §3
The next data set deals with S1P. Put plainly: S1P levels in dorsal horn tissue by ELISA. The format is in vivo, rat. The note with it: for morphine-induced increased production of S1P in dorsal horn tissues: sc. On the technique in general: An ELISA detects its analyte on a solid surface through an enzyme-linked reagent.
The target in another data set is S1P5 (Homo sapiens, UniProt Q9H228). The settings on record: relative to S1P1; cited from earlier work.
A further data set concerns the target S1P2 (Homo sapiens, UniProt O95136). The note with it: cited from earlier work.
Setting [11] is: 3 μM/day i.th co-administered with morphine infusion.
Where [12] appears, read: daily intrathecal, W146 0.3-3 μM/day, W140 3 μM/day.

Sequence of S1P5 (Q9H228 whole entry, species assumed): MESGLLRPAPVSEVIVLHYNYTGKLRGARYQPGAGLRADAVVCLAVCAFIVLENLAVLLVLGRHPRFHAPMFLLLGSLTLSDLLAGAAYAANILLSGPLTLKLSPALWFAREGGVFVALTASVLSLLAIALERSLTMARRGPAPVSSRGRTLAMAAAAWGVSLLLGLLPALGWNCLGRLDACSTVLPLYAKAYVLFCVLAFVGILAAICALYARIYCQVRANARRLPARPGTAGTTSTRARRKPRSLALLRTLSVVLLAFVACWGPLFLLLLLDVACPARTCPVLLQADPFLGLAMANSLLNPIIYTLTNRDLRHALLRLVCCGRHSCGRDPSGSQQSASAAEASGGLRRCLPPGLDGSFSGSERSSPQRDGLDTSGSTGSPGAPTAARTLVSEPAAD
Sequence of S1P1 subtype, human receptor (P21453 whole entry, the tested form may be a part): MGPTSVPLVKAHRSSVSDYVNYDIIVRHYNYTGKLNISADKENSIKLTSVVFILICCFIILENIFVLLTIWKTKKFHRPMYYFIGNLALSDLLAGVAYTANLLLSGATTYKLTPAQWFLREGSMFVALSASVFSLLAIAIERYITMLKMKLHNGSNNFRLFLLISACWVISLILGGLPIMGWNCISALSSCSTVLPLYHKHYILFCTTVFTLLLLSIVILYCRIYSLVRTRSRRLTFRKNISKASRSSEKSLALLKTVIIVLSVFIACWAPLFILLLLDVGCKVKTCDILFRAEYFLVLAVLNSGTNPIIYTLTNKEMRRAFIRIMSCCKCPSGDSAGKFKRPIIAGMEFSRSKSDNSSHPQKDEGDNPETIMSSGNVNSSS
Sequence of S1P2 (O95136 whole entry, species assumed, the tested form may be a part): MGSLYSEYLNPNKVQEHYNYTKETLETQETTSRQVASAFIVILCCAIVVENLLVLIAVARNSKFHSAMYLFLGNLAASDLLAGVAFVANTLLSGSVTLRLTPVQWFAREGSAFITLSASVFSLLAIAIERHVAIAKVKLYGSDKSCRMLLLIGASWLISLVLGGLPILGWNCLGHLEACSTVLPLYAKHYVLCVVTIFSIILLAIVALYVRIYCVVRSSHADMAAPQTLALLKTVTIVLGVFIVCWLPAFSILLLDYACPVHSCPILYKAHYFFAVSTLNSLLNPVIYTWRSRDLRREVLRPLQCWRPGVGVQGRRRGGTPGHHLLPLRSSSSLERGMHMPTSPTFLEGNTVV
Sequence of murine S1P1 subtype (O08530 whole entry): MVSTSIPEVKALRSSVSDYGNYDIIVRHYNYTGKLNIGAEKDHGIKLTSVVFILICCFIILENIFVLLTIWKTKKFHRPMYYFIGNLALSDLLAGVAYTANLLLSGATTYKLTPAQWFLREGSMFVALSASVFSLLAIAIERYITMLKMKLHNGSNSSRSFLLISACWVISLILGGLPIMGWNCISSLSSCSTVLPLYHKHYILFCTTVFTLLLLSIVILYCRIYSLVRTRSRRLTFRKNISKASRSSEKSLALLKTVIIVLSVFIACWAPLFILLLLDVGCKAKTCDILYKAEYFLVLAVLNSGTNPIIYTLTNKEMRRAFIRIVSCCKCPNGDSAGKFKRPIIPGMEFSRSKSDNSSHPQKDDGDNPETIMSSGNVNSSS

`CCCCCCc1cccc(NC(=O)[C@H](N)CCP(=O)(O)O)c1` [W146]: the carrageenan-induced hyperalgesia entry with rats [1] is “blocks”. Moreover, in data set [2], the “antagonistic or agonistic activity against other S1P receptor subtypes” value is on record as “No-antagonistic (or agonistic) activity”. Further, the “effect when given alone (no ceramide)” value with rats [3] was “had no effect”. The ceramide-induced thermal hyperalgesia entry in the data set with rats [3] (LT1002 242 μg, LT1017 286 μg, W146 0.3, 0.6 or 1.2 μg, W140 1.2 μg) is reported as “inhibited”. In addition, the “development of S1P-induced thermal hyperalgesia” value in data set [4] was “blocked”. In addition, in data set [5], the Ki was approximately 0.08 µM. Further, in the data set on Male Sprague Dawley rats [6] (setting [11]), the “block of development of thermal hyperalgesia” value is more than 90%. In addition, the “effect on hindpaw withdrawal latencies when given alone” value with Male Sprague Dawley rats [6] is on record as “had no effect”. For the same molecule, the “potency at the murine S1P1 subtype relative to human” value at murine S1P1 subtype is given as “equipotency”. Also, the observable side effects entry in the data set with rats [7] was “No observable side effects”. Further, the “baseline withdrawal thresholds when given alone” value with Male Sprague Dawley rats [8] (W146 3 μM/day, highest dose tested) is reported as “did not affect”. In the data set on Male Sprague Dawley rats [8] (setting [12]), the “development of paclitaxel-induced mechano-allodynia” value is reported as “attenuated in a dose-dependent manner” and the “development of paclitaxel-induced mechano-hyperalgesia” value was “attenuated in a dose-dependent manner”. For the same molecule, the “reversal of Paclitaxel-induced neuropathic pain” value in the data set with Male Sprague Dawley rats [8] (given i.p on day 16, behavioral testing 60 minutes later) is “reverses”. In the data set on Male Sprague Dawley rats [9] (setting [11]), the “block of development of antinociceptive tolerance” value is given as more than 90%. Moreover, the “effect on tail flick latencies when given alone” value with Male Sprague Dawley rats [9] was “had no effect”. For the same molecule, the “effect on dose-response to acute morphine” value with rats [10] is “did not modify”.
As for `S=C([S-])OC1CC2CC1C1CCCC21.[K+]` (stereo not drawn) [D609, Tricyclodecan-9-ylxanthogenate, K], in the data set with S1P (rat, in vivo), the “S1P (pg/mg tissue)” value came to 1.5 ± 0.06 pg/mg tissue, the “effect on S1P levels in spinal cord tissues” value (from here on “effect on S1P levels”) is listed as “did not affect” and the “morphine-induced increased production of S1P in dorsal horn tissues” value (shortened to “morphine-induced increased production”) was “blocked”. In the data set with Male Sprague Dawley rats [6], the “development of morphine-induced hyperalgesia” value is recorded as “blocked”, the “effect on paw-withdrawal latencies” value was “did not affect” and the “Paw-Withdrawal Latency” value is given as 19 ± 0.7 s. In addition, in the data set with Male Sprague Dawley rats [9], the “development of morphine antinociceptive tolerance” value is recorded as “blocked”, the “effect on antinociceptive responses to acute morphine” value (shortened to “effect on antinociceptive responses”) was “did not affect” and the “% MPE (Tail-flick)” value is 92 ± 3.0%.
Turning to `CCCC[C@@H](C)[C@@H](OC(=O)C[C@@H](CC(=O)O)C(=O)O)[C@H](C[C@@H](C)C[C@H](O)CCCC[C@@H](O)C[C@H](O)[C@H](C)N)OC(=O)C[C@@H](CC(=O)O)C(=O)O` [FB1, fumonisin B1], in the data set with S1P (rat, in vivo), the “S1P (pg/mg tissue)” value stood at 1.4 ± 0.06 pg/mg tissue, the “effect on S1P levels” value is reported as “did not affect” and the “morphine-induced increased production” value is on record as “blocked”. Besides, in the data set with Male Sprague Dawley rats [6], the “development of morphine-induced hyperalgesia” value is on record as “blocked”, the “effect on paw-withdrawal latencies” value is “did not affect” and the “Paw-Withdrawal Latency” value is 19 ± 0.8 s. In addition, in the data set with Male Sprague Dawley rats [9], the “development of morphine antinociceptive tolerance” value is on record as “blocked”, the “effect on antinociceptive responses” value is “did not affect” and the “% MPE (Tail-flick)” value stood at 92 ± 3.2%.
As to `CCCCCCC(=O)CCCCCC/C=C/C[C@@H](O)[C@H](O)[C@@](N)(CO)C(=O)O` [Myr, myriocin], in the data set with S1P (drug alone vs Veh-Sal, day 6), the “effect on S1P levels” value is “did not affect”. Moreover, in the data set on S1P (rat, in vivo), the “S1P (pg/mg tissue)” value is 1.2 ± 0.05 pg/mg tissue and the “morphine-induced increased production” value is “blocked”. Also, in the data set on Male Sprague Dawley rats [6], the “development of morphine-induced hyperalgesia” value is reported as “blocked”, the “effect on paw-withdrawal latencies” value is “did not affect” and the “Paw-Withdrawal Latency” value is 19 ± 0.5 s. Further, in the data set with Male Sprague Dawley rats [9], the “development of morphine antinociceptive tolerance” value was “blocked”, the “effect on antinociceptive responses” value was “did not affect” and the “% MPE (Tail-flick)” value amounted to 91 ± 3.0%.
Consider `CCCCCCc1cccc(NC(=O)[C@@H](N)CCP(=O)(O)O)c1` [W140], for which the “effect on hindpaw withdrawal latencies when given alone” value in the data set with Male Sprague Dawley rats [6] is “had no effect”. The “effect on tail flick latencies when given alone” value with Male Sprague Dawley rats [9] is “had no effect”.
Take `CCCCCCCCc1ccc(CC[C@](N)(CO)COP(=O)(O)O)cc1` [Fingolimod-P]: at S1P5, the “binding affinity for S1P5” value is reported as “slightly lower affinity”. Further, on S1P2, the “binding affinity for S1P2” value is on record as “no reported affinity”.

The term Ki denotes the dissociation constant of the complex between target and ligand, obtained from inhibition or displacement.

The values above are taken from US8945549B2, “Methods of treating antinociceptive tolerance” (Saint Louis University, priority 2010, dated 2015).
